The source of these data is US5227299A, “NADH kinase and a process for producing the same” (Noda Institute for Scientific Research, priority 1991, dated 1993).

Experiment [1] deals with NADH kinase (the present enzyme). As to the kind of experiment: Inhibition, activation and stabilization of the present enzyme. Type of experiment: biochemical, Pichia membranaefaciens.
In experiment [2] the test system is NADH kinase A. The settings on record: Table 3, NADH kinase A; cited from earlier work.
The test system of experiment [3] is NADH kinase B. The following applies: Table 3, NADH kinase B; cited from earlier work.
For experiment [4], the system named is NADH kinase (the present enzyme). Description: Substrate specificity of the present enzyme (NADH vs NAD+). The class given is biochemical, Pichia membranaefaciens. The settings on record: for Specificity (relative activity, NADH = 100): Table 3, present enzyme; for Relative activity (%): substrate NADH or NAD+, ATP, pH 8.5, 30° C., 20 minutes, percentage based on NADH. The procedure: The substrate specificity of the present enzyme was examined under the following reaction conditions. […]
To 0.9 ml of each of the above substrate solutions containing NADH or NAD^+ was added 0.1 ml of 23 U/ml of the present enzyme, and the reaction was carried out at 30° C. for 20 minutes. Then, the reaction was terminated by heat treatment at 100° C. for 2 minutes, and the denatured protein was removed, after which the amount of NADPH or NADP^+ produced by the reaction of the corresponding substrate was measured as follows. As a control solution, there was used a mixture of each substrate solution and the present enzyme in which the reaction had been terminated immediately after mixing them.
With 1 ml of each of the reaction solutions obtained in the above was mixed 1 ml of a color-producing solution consisting of 10 mM G-6-P, 50 mM HEPPS buffer (pH 8.0), 10 mM magnesium chloride, 0.1% bovine serum albumin, 2.5 IU/ml G-6-P dehydrogenase (NADP^+ -dependent), 5 IU/ml diaphorase and 250 μM 2,6-dichlorophenolindophenol. The resulting mixture was immediately introduced into a constant-temperature cuvette of STASAR III spectrophotometer of Gilford and subjected to reaction at 30° C. Simultaneously with the reaction, the change of absorbance at 600 nm was measured with the lapse of time, and the difference (ΔOD600 nm /min) between absorbance values 1 minute and 2 minutes after the initiation of the coloration reaction was taken as a measured value. As to relative activity (%), a measured value (ΔOD600 nm /min) obtained by using NAD^+ as a substrate was shown as a percentage based on a measured value (ΔOD600 nm /min) obtained by using NADH as a substrate.

As for `[Cd+2]` [Cd^2+], the “Inhibition of the present enzyme” value in experiment [1] is given as “strongly inhibited”.

Consider `[Cu+2]` [Cu^2+], for which the “Inhibition of the present enzyme” value in experiment [1] is given as “strongly inhibited”.

For the compound `[Hg+2]` [Hg^2+], the “Inhibition of the present enzyme” value in experiment [1] is recorded as “strongly inhibited”.

Take `[Mg+2]` [Mg^2+]: the “Stabilization of the present enzyme” value in experiment [1] was “stabilized”.

With `[Mn+2]` [Mn^2+], in experiment [1], the “Stabilization of the present enzyme” value is on record as “stabilized”.

For `NC(=O)C1=CN([C@@H]2O[C@H](COP(=O)(O)OP(=O)(O)OC[C@H]3O[C@@H](n4cnc5c(N)ncnc54)[C@H](O)[C@@H]3O)[C@@H](O)[C@H]2O)C=CC1` [NADH], the “Specificity (relative activity, NADH = 100)” value in experiment [2] is 100. The “Specificity (relative activity, NADH = 100)” value in experiment [3] was 100. In addition, in experiment [4], the “Action of the present enzyme on the substrate” value is “very specific”; the “Specificity (relative activity, NADH = 100)” value is on record as 100; the “Relative activity (%)” value is on record as 100%.

Turning to `NC(=O)c1ccc[n+]([C@@H]2O[C@H](COP(=O)([O-])OP(=O)(O)OC[C@H]3O[C@@H](n4cnc5c(N)ncnc54)[C@H](O)[C@@H]3O)[C@@H](O)[C@H]2O)c1` [NAD^+], the “Specificity (relative activity, NADH = 100)” value was 1.7 in experiment [2], 1.6 in experiment [3] and 0.9 in experiment [4]. For the same compound, the “Action of the present enzyme on the substrate” value in experiment [4] was “hardly acts”. The “Relative activity (%)” value in experiment [4] amounted to 0.9%.

Take `[Pb+2]` [Pb^2+]: the “Inhibition of the present enzyme” value in experiment [1] is listed as “strongly inhibited”.

As for `CCCCCCCCCCCCOS(=O)(=O)[O-].[Na+]` [SDS, sodium lauryl sulfate, reference compound], the “Inhibition of the present enzyme” value in experiment [1] is given as “strongly inhibited”.

`[Zn+2]` [Zn^2+]: the “Inhibition of the present enzyme” value in experiment [1] is recorded as “strongly inhibited”.

For `N.N.O=S(=O)(O)O` [ammonium sulfate], the “Stabilization of the present enzyme” value in experiment [1] is given as “stabilized”.

Turning to `O=C(O)c1cc[c]([Hg][Cl])cc1` [p-CMB, p-chloromercuribenzoic acid, reference compound], the “Inhibition of the present enzyme” value in experiment [1] is given as “strongly inhibited”.

For `OC[C@H]1O[C@@](CO)(O[C@H]2O[C@H](CO)[C@@H](O)[C@H](O)[C@H]2O)[C@@H](O)[C@@H]1O` [saccharose], the “Stabilization of the present enzyme” value in experiment [1] is “stabilized”.

On to `CC(=O)O` [sodium acetate], for which the “Activation of the present enzyme” value in experiment [1] is listed as “activated”.
